Reference: DBAASP
In brackets after ≈: the same amount, converted by molar mass. Each block holds one molecule with its values, some of them ahead of it.

Key:
Assay in all cases: ≥ marks a high value that may be exact or a test limit, other limits are often not marked, values filed in µg/mL are converted to µM
[1] = system: Escherichia coli ATCC 11775
Botrytis cinerea = system: Botrytis cinerea
[2] = system: Staphylococcus aureus ATCC 12600
[3] = system: Candida albicans ATCC 10231
Staphylococcus aureus = system: Staphylococcus aureus
Bacillus subtilis 168 = system: Bacillus subtilis 168
Escherichia coli B = system: Escherichia coli B
Pseudomonas aeruginosa = system: Pseudomonas aeruginosa
[4] = system: Candida albicans F7-39/IDE99
Escherichia coli JW0013 = system: Escherichia coli JW0013
[5] = system: Staphylococcus aureus USA 100
[6] = system: Staphylococcus epidermidis KCTC 1917
[7] = system: Staphylococcus aureus KCTC 1621
[8] = system: Pseudomonas aeruginosa KCTC 1637
[9] = system: Staphylococcus aureus CCARM 3089
[10] = system: Salmonella typhimurium KCTC 1926
[11] = system: Escherichia coli KCTC 1682
[12] = system: Bacillus subtilis KCTC 3068
[13] = system: Staphylococcus aureus ATCC 25923
Escherichia coli = system: Escherichia coli
[14] = system: Escherichia coli ATCC 25922
Klebsiella pneumoniae = system: Klebsiella pneumoniae
[15] = system: Escherichia coli ATCC 8739
[16] = system: Staphylococcus epidermidis
Bacillus subtilis = system: Bacillus subtilis
Streptococcus pyogenes = system: Streptococcus pyogenes
Proteus vulgaris = system: Proteus vulgaris
Salmonella typhimurium = system: Salmonella typhimurium
[17] = system: Pectobacterium carotovorum
Enterococcus faecium = system: Enterococcus faecium
[18] = system: Pseudomonas aeruginosa ATCC 9027
[19] = system: Candida albicans ATCC 90028
[20] = system: Staphylococcus aureus USA 300

Structure (SMILES): CC(C)C[C@H](NC(=O)[C@H](C)NC(=O)[C@H](CO)NC(=O)[C@H](C)NC(=O)[C@@H](NC(=O)[C@H](CCCCN)NC(=O)[C@H](CCCCN)NC(=O)[C@@H](NC(=O)[C@H](CC(C)C)NC(=O)CNC(=O)[C@H](CC(C)C)NC(=O)[C@H](CC(C)C)NC(=O)[C@H](CC(=O)O)NC(=O)[C@@H](N)Cc1ccccc1)C(C)C)C(C)C)C(N)=O [FDLLGLVKKVASAL]
MIC [1]: ≥ 100 µM
MIC (Botrytis cinerea): 5 µM (≈ 7.36 µg/mL)
MIC [2]: ≥ 50 µM
MIC [3]: 100 µM (≈ 147 µg/mL)

Structure (SMILES): CC[C@H](C)[C@H](N)C(=O)N[C@@H](CC(C)C)C(=O)N1CCC[C@H]1C(=O)N[C@H](C(=O)N[C@@H](CC(C)C)C(=O)N[C@@H](C)C(=O)N1CCC[C@H]1C(=O)N[C@@H](CC(C)C)C(=O)N[C@H](C(=O)NCC(=O)NCC(=O)N[C@@H](CC(C)C)C(=O)N[C@@H](CC(C)C)C(N)=O)[C@@H](C)CC)[C@@H](C)CC [ILPILAPLIGGLL]
MIC [1]: ≥ 100 µM
MIC [2]: ≥ 100 µM

Structure (SMILES): CC[C@H](C)[C@H](NC(=O)[C@H](C)NC(=O)[C@H](CO)NC(=O)[C@@H](NC(=O)[C@@H](NC(=O)[C@@H](NC(=O)[C@H](Cc1cnc[nH]1)NC(=O)[C@H](CC(C)C)NC(=O)[C@H](CC(=O)O)NC(=O)[C@@H](N)CCCCN)[C@@H](C)O)C(C)C)C(C)C)C(=O)N[C@@H](CC(C)C)C(=O)N[C@@H](CCC(N)=O)C(=O)N[C@@H](C)C(=O)N[C@@H](CC(C)C)C(N)=O [KDLHTVVSAILQAL]
MIC [1]: ≥ 66.3 µM
MIC (Botrytis cinerea): 5.31 µM (≈ 7.99 µg/mL)
MIC [2]: ≥ 66.3 µM
MIC [3]: 33.2 µM (≈ 50 µg/mL)

Structure (SMILES): CC[C@H](C)[C@H](NC(=O)[C@H](CCCN=C(N)N)NC(=O)[C@H](CCCCN)NC(=O)[C@@H](NC(=O)[C@@H](NC(=O)[C@H](CCCN=C(N)N)NC(=O)[C@@H](N)CCCCN)[C@@H](C)CC)C(C)C)C(=O)N[C@@H](CCCCN)C(=O)N[C@@H](CCCCN)C(=O)N[C@@H](Cc1c[nH]c2ccccc12)C(=O)N[C@@H](CC(C)C)C(=O)N[C@@H](CCCN=C(N)N)C(N)=O [KRIVKRIKKWLR]
MIC [6]: 1 µM (≈ 1.62 µg/mL)
MIC [7]: 2 µM (≈ 3.25 µg/mL)
MIC [8]: 8 µM (≈ 13 µg/mL)
MIC [9]: 4 µM (≈ 6.49 µg/mL)
MIC [10]: 2 µM (≈ 3.25 µg/mL)
MIC [11]: 2 µM (≈ 3.25 µg/mL)
MIC [12]: 2 µM (≈ 3.25 µg/mL)

Structure (SMILES): CC(C)C[C@H](NC(=O)[C@H](CCCN=C(N)N)NC(=O)[C@@H]1CCCN1C(=O)[C@H](Cc1cnc[nH]1)NC(=O)[C@@H]1CCCN1C(=O)[C@@H]1CCCN1C(=O)[C@H](CCCN=C(N)N)NC(=O)[C@@H]1CCCN1C(=O)[C@H](CCC(N)=O)NC(=O)[C@@H]1CCCN1)C(=O)O [PQPRPPHPRL]
MIC [16]: ≥ 64 µM
MIC (Bacillus subtilis): ≥ 64 µM
MIC (Streptococcus pyogenes): ≥ 64 µM
MIC (Escherichia coli): 64 µM (≈ 76.4 µg/mL)
MIC (Pseudomonas aeruginosa): 64 µM (≈ 76.4 µg/mL)
MIC (Proteus vulgaris): ≥ 64 µM
MIC (Salmonella typhimurium): 16 µM (≈ 19.1 µg/mL)

Structure (SMILES): NC(=O)C[C@H](NC(=O)[C@H](Cc1ccccc1)NC(=O)[C@@H](N)Cc1c[nH]c2ccccc12)C(=O)O [WFN]
MIC [18]: > 100 µM
MIC [5]: ≥ 100 µM
MIC [19]: ≥ 100 µM
MIC [20]: ≥ 100 µM

Second part, the molecule after the results:

MIC (Staphylococcus aureus): 4.5 µM (≈ 6.72 µg/mL)
MIC (Bacillus subtilis 168): 0.8 µM (≈ 1.2 µg/mL)
MIC (Escherichia coli B): 2.5 µM (≈ 3.73 µg/mL)
MIC (Pseudomonas aeruginosa): 10.7 µM (≈ 16 µg/mL)
MIC [4]: 4.5 µM (≈ 6.72 µg/mL)
Structure (SMILES): CC[C@H](C)[C@H](NC(=O)[C@H](Cc1cnc[nH]1)NC(=O)[C@H](CCCCN)NC(=O)[C@H](CC(C)C)NC(=O)[C@H](CC(C)C)NC(=O)[C@H](CCCCN)NC(=O)[C@H](CCSC)NC(=O)[C@H](Cc1c[nH]c2ccccc12)NC(=O)[C@H](CCCCN)NC(=O)CN)C(=O)N[C@@H](CC(C)C)C(=O)N[C@@H](CCCCN)C(N)=O [GKWMKLLKHILK]

MIC (Escherichia coli JW0013): 0.3 µM (≈ 0.645 µg/mL)
Structure (SMILES): CC(C)C[C@H](NC(=O)[C@H](CCCN=C(N)N)NC(=O)[C@@H]1CCCN1C(=O)[C@H](Cc1cnc[nH]1)NC(=O)[C@@H]1CCCN1C(=O)[C@@H]1CCCN1C(=O)[C@H](CCCN=C(N)N)NC(=O)[C@@H]1CCCN1C(=O)[C@H](CCC(N)=O)NC(=O)[C@@H]1CCCN1C(=O)[C@H](CCCN=C(N)N)NC(=O)[C@H](Cc1ccc(O)cc1)NC(=O)[C@@H](NC(=O)[C@@H]1CCCN1C(=O)[C@H](CCCN=C(N)N)NC(=O)[C@H](CC(N)=O)NC(=O)[C@H](CC(N)=O)NC(=O)CN)C(C)C)C(=O)O [GNNRPVYRPQPRPPHPRL]

MIC [5]: ≥ 100 µM
Structure (SMILES): CC[C@H](C)[C@H](N)C(=O)N[C@@H](CCCN=C(N)N)C(=O)N[C@H](C(=O)N[C@@H](CCCN=C(N)N)C(N)=O)[C@@H](C)CC [IRIR]

MIC [13]: > 120 µM
MIC (Escherichia coli): 30 µM (≈ 64 µg/mL)
MIC [14]: 11.7 µM (≈ 25 µg/mL)
MIC (Klebsiella pneumoniae): 60.9 µM (≈ 130 µg/mL)
MIC [15]: 7.5 µM (≈ 16 µg/mL)
Structure (SMILES): CC[C@H](C)[C@H](NC(=O)[C@H](CCCN=C(N)N)NC(=O)[C@H](C)NC(=O)[C@H](C)NC(=O)[C@H](CC(C)C)NC(=O)[C@H](CCCCN)NC(=O)[C@H](CCCCN)NC(=O)[C@H](CCCCN)NC(=O)[C@H](CCSC)NC(=O)[C@@H]1CCCN1)C(=O)N[C@@H](CC(C)C)C(=O)N[C@@H](C)C(=O)N[C@@H](CCCCN)C(=O)N[C@H](C(=O)N[C@H](C(=O)N[C@@H](C)C(=O)N1CCC[C@H]1C(=O)N[C@H](C(=O)N[C@@H](Cc1c[nH]c2ccccc12)C(=O)O)C(C)C)C(C)C)[C@@H](C)CC [PMKKKLAARILAKIVAPVW]

MIC [17]: 1.34 µM
Structure (SMILES): CC(C)C[C@H](NC(=O)[C@H](Cc1ccccc1)NC(=O)CNC(=O)[C@H](C)NC(=O)[C@H](Cc1ccccc1)NC(=O)[C@@H](NC(=O)[C@H](CCCN=C(N)N)NC(=O)[C@H](CC(=O)O)NC(=O)[C@H](CCCCN)NC(=O)[C@H](CCC(=O)O)NC(=O)[C@@H](N)CCC(N)=O)[C@@H](C)O)C(=O)N[C@@H](CC(C)C)C(=O)N[C@@H](CCCCN)C(=O)NCC(=O)N[C@@H](Cc1ccccc1)C(=O)NCC(=O)N[C@H](C(=O)N[C@@H](CO)C(=O)N[C@@H](C)C(=O)N[C@@H](CO)C(=O)O)[C@@H](C)O [QEKDRTFAGFLLKGFGTSAS]

MIC (Staphylococcus aureus): 3.35 µM (≈ 5.66 µg/mL)
MIC [6]: 1.18 µM (≈ 2 µg/mL)
MIC [7]: 2.37 µM (≈ 4 µg/mL)
MIC [8]: 9.47 µM (≈ 16 µg/mL)
MIC (Enterococcus faecium): 2.37 µM (≈ 4 µg/mL)
MIC [10]: 4.73 µM (≈ 8 µg/mL)
MIC [11]: 9.47 µM (≈ 16 µg/mL)
MIC [12]: 2.37 µM (≈ 4 µg/mL)
Structure (SMILES): NC(N)=NCCC[C@H](NC(=O)[C@H](CCCN=C(N)N)NC(=O)[C@H](Cc1ccccc1)NC(=O)[C@@H]1CCCN1C(=O)[C@H](Cc1c[nH]c2ccccc12)NC(=O)[C@H](Cc1c[nH]c2ccccc12)NC(=O)[C@H](Cc1c[nH]c2ccccc12)NC(=O)[C@@H]1CCCN1C(=O)[C@H](Cc1ccccc1)NC(=O)[C@H](CCCN=C(N)N)NC(=O)[C@@H](N)CCCN=C(N)N)C(=O)O [RRFPWWWPFRR]

MIC (Escherichia coli JW0013): 1.28 µM (≈ 3.1 µg/mL)
Structure (SMILES): CC[C@H](C)[C@H](NC(=O)[C@H](CCCN=C(N)N)NC(=O)[C@H](CCCN=C(N)N)NC(=O)[C@@H]1CCCN1C(=O)[C@@H]1CCCN1C(=O)[C@H](CCCN=C(N)N)NC(=O)[C@@H]1CCCN1C(=O)[C@H](CCCN=C(N)N)NC(=O)[C@@H]1CCCN1C(=O)[C@H](CC(C)C)NC(=O)[C@H](Cc1ccc(O)cc1)NC(=O)[C@@H]1CCCN1C(=O)[C@H](CCSC)NC(=O)[C@H](CCCCN)NC(=O)[C@H](CC(=O)O)NC(=O)[C@@H](N)C(C)C)C(=O)N[C@@H](Cc1ccc(O)cc1)C(=O)N[C@@H](CC(N)=O)C(=O)N[C@@H](CCCN=C(N)N)C(N)=O [VDKMPYLPRPRPPRRIYNR]
